SMILES strings stand for the structures.

Data set [1] concerns the target T1, Short transient receptor potential channel 3 (Homo sapiens, UniProt Q13507).
T1 sequence (Q13507 whole entry): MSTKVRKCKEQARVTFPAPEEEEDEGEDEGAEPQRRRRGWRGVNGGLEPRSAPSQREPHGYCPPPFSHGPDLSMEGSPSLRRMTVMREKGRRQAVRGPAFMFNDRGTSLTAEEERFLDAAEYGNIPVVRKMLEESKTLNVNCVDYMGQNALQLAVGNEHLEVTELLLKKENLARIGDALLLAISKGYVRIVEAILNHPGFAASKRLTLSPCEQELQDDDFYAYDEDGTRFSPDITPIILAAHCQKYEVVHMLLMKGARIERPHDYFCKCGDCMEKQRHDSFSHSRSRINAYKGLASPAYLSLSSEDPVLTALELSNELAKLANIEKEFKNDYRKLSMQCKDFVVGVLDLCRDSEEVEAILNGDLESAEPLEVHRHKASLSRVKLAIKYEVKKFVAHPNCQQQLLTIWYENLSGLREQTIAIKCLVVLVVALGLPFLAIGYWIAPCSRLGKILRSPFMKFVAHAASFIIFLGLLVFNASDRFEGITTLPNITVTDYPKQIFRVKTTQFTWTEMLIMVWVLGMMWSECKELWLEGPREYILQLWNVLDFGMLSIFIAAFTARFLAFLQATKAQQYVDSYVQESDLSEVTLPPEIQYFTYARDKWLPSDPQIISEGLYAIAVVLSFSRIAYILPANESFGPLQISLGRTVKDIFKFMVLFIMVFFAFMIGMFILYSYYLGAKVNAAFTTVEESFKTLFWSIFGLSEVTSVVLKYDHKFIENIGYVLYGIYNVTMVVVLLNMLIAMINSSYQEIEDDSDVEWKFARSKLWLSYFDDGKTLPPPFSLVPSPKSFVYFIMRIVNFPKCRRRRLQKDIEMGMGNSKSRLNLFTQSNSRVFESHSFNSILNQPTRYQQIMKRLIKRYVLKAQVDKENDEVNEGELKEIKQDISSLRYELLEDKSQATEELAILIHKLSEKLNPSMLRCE
Put plainly: Antagonist activity at human TRPC3 stably expressed in HEK293 cells inhibition of calcium influx by calcium fluorescence assay. The data set is classed as cell-based.

The nature of data set [2]: Toxicity against BALB/c nude mouse xenografted with human U87 cells assessed as mortality at 12.5 to 50 mg/kg/day administered as liposome encapsulated form for 15 days. The conditions noted are these: in vivo, 360 h, dose 12.5-50 mg/kg/day, time 15 day. The data set is classed as organism-based, U-87MG ATCC.
Data set [3] is described as follows: Terminal half life in BALB/c mouse at 12.5 mg/kg, ip administered as liposome encapsulated form and measured upto 24 hrs by LC-MS/MS analysis. The data set is classed as ADME, organism-based. The conditions noted are these: in vivo, read-out: beta t1/2 (converted).
Data set [4] in a line: AUC (0 to infinity) in BALB/c mouse at 50 mg/kg, ip administered as liposome encapsulated form and measured upto 24 hrs by LC-MS/MS analysis. The data set is classed as ADME, organism-based. Conditions: in vivo.
Data set [5] has as its target T2, Short transient receptor potential channel 6 (Mus musculus) (UniProt Q61143).
T2 sequence (whole entry): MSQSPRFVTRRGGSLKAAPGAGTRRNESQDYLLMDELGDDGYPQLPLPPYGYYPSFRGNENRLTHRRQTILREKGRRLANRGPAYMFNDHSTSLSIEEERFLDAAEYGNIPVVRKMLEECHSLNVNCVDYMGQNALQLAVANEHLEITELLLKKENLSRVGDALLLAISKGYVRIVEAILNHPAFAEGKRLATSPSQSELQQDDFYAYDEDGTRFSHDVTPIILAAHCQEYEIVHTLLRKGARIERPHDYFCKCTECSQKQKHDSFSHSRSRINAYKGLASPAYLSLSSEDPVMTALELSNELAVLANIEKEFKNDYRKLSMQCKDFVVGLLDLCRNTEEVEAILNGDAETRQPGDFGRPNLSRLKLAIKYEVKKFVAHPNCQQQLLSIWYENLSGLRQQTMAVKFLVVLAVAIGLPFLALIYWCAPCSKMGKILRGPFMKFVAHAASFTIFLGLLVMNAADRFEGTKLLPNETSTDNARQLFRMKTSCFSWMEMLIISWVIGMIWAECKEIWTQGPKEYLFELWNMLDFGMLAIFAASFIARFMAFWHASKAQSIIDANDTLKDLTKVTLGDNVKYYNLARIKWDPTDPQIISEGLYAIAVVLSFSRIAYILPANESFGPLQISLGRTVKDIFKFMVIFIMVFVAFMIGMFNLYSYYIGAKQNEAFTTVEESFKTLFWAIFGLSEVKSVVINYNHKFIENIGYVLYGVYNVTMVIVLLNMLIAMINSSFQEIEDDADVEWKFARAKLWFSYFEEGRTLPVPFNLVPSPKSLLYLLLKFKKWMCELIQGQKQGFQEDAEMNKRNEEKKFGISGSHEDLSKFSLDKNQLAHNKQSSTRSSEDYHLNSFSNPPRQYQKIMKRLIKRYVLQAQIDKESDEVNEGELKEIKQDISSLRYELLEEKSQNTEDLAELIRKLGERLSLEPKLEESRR
Kind of data set: Antagonist activity at mouse TRPC6 stably expressed in HEK293 cells assessed as inhibition of calcium influx at 10 uM by calcium fluorescence assay relative to control. The data set is classed as cell-based. The conditions noted are these: filed as antagonist.

Data set [6] is described as follows: Selectivity index, ratio of IC50 for human MKN-45 cells to IC50 for human U87 cells. The data set is classed as functional.
In the next data set the test system is U-87 MG. Kind of data set: Antitumor activity against human U87 cells xenografted in BALB/c nude mouse assessed as tumor growth inhibition at 50 mg/kg/day administered as liposome encapsulated form for 15 days and measured every 3 days by vernier caliper. The data set is classed as functional, U-87MG ATCC. The conditions noted are these: 360 h, time 15 day, read-out: TGI.

A short description of data set [7]: Apparent clearance in BALB/c mouse at 50 mg/kg, ip administered as liposome encapsulated form and measured upto 24 hrs by LC-MS/MS analysis. Conditions: in vivo, read-out: CL(app) (converted). The format is ADME, organism-based.
Data set [8] can be described thus: Cmax in BALB/c mouse at 25 mg/kg, ip administered as liposome encapsulated form and measured upto 24 hrs by LC-MS/MS analysis. The data set is classed as ADME, organism-based. Conditions: in vivo.
For the next data set, the system named is MKN-45. Put plainly: Antiproliferative activity against human MKN-45 cells assessed as reduction in cell viability incubated for 72 hrs by MTT assay. The format is functional, cell-based. Conditions: MKN-45, 72 h. Background: Tetrazolium dyes change colour on reduction, which living cells bring about.
For the next data set, the system named is A549. Kind of data set: Antiproliferative activity against human A549 cells assessed as reduction in cell viability incubated for 72 hrs by MTT assay. The data set is classed as functional, cell-based. Conditions: A549, 72 h.
A further data set relates to LNCaP. Kind of data set: Antiproliferative activity against human LNCaP cells assessed as reduction in cell viability incubated for 72 hrs by MTT assay. The format is functional, cell-based.
Data set [9] is described as follows: Apparent clearance in BALB/c mouse at 12.5 mg/kg, ip administered as liposome encapsulated form and measured upto 24 hrs by LC-MS/MS analysis. The data set is classed as ADME, organism-based. Conditions: in vivo, read-out: CL(app) (converted).
Data set [10] can be described thus: Cmax in BALB/c mouse at 50 mg/kg, ip administered as liposome encapsulated form and measured upto 24 hrs by LC-MS/MS analysis. The format is ADME, organism-based. Conditions: in vivo.
In data set [11] the target is T3, Short transient receptor potential channel 6 (Mus musculus, UniProt Q61143).
T3 sequence (Q61143 whole entry): T2 sequence (whole entry)
Put plainly: Antagonist activity at mouse TRPC6 stably expressed in HEK293 cells inhibition of calcium influx by calcium fluorescence assay. The data set is classed as cell-based.

Data set [12] is described as follows: AUC (0 to t) in BALB/c mouse at 50 mg/kg, ip administered as liposome encapsulated form and measured upto 24 hrs by LC-MS/MS analysis. The format is ADME, organism-based. Conditions: in vivo.

As for `NCCN(Cc1ccc2ccccc2c1)c1nc(C(=O)Nc2ccc(O)cc2)cs1`, the IC50 (as a rule, the concentration that inhibits the measured activity by half) in data set [1] came out at 2.4 µM; in the data set on MKN-45, 11 µM; in the data set on A549, 21.1 µM; in the data set on LNCaP it was 8.3 µM; in [11] it was 2.9 µM. Also, in [2], the Activity result is recorded as “Non-Toxic”. Besides, in [3], the half-life is 6.8 h. Moreover, the total exposure AUC(0-inf) (usually total exposure, with the tail of the curve extrapolated) in data set [4] worked out at 16800 ng·h/mL. Further, the inhibition – broadly, how much of the control response was suppressed – in data set [5] turned out to be 100%. The “Ratio IC50” value in [6] amounted to 2. Moreover, in the data set on U-87 MG, the inhibition in vivo at 50 mg/kg/day came out at 49.4%. The values for the CL/F in [7] and in data set [9] were 49.6 mL/min/kg and 74.6 mL/min/kg, respectively. Also, the Cmax (commonly the peak of the concentration-time curve) in data set [8] was found to be 1220 ng/mL; in data set [10], 2910 ng/mL. Moreover, the AUC(0-t) (in general, the area under the concentration-time curve up to a stated or last time point) at 24 h in [12] is 16600 ng·h/mL.

For the origin of these results see ChEMBL document CHEMBL5518193, “Discovery of N-alkyl-N-benzyl thiazoles as novel TRPC antagonists for the treatment of glioblastoma multiforme” (Eur J Med Chem, 2024).
